biological target: indoleamine 2,3-dioxygenase (IDO) (Homo sapiens, UniProt P14902); assay: HeLa cell-based indoleamine 2,3-dioxygenase (IDO) assay (kynurenine production, IFNγ-stimulated); settings: HeLa cells, IFNγ 25 ng/mL, 48 hour incubation; read-out: IDO Hela IC50
Method: Assessment of inhibitor activity in HeLa cell-based indoleamine 2,3-dioxygenase (IDO) assay. HeLa (ATCC® CCL-2) cells were obtained from the ATCC® and cultured in Dulbecco's Modified Eagle Medium supplemented with 4.5 g/L glucose, 4.5 […] sodium pyruvate (#10-013-CV, Corning), 2 mM L-alanyl-L-glutamine dipeptide (#35050-061, Gibco), 100U/mL penicillin, 100 μg/mL streptomycin (#SV30010, HyClone) and 10% fetal bovine serum (#SH30071.03 HyClone). Cells were maintained in a humidified incubator at 37° C. in 5% CO2. […] After 24 hours, the media was aspirated and replaced with media containing IFNγ (#285-IF/CF, R&D Systems) at a final concentration of 25 ng/mL. A serial dilution of each test compound was added to the cells in a total volume of 200 μL of culture medium. After a further 48 hour incubation, 170 μL of supernatant was transferred from each well to a fresh 96-well plate. 12.1 μL of 6.1N trichloroacetic acid (#T0699, Sigma-Aldrich) was added to each well and mixed, followed by incubation at 65° C. for 20 minutes to hydrolyze N-formylkynurenine, the product of indoleamine 2,3-dioxygenase, to kynurenine. The reaction mixture was then centrifuged for 10 mins at 500×g to sediment the precipitate. 100 μL of the supernatant was transferred from each well to a fresh 96-well plate. 100 μl of 2% (w/v) p-dimethylaminobenzaldehyde (#15647-7, Sigma-Aldrich) in acetic acid (#A6283, Sigma-Aldrich) was added to each well mixed and incubated at room temperature for 20 mins. Kynurenine concentrations were determined by measuring absorbance at 480 nm and calibrating against an L-kynurenine (#K8625, Sigma-Aldrich) standard curve using a SPECTRAMAX® M2e microplate reader (Molecular Devices). The percentage activity at each inhibitor concentration was determined and IC50 values assessed using nonlinear regression. Activity for compounds described herein is provided in Table 1, wherein potency levels are provided as follows: (Potency: IDO IC50: […])

Chain of indoleamine 2,3-dioxygenase (IDO) (P14902 whole entry): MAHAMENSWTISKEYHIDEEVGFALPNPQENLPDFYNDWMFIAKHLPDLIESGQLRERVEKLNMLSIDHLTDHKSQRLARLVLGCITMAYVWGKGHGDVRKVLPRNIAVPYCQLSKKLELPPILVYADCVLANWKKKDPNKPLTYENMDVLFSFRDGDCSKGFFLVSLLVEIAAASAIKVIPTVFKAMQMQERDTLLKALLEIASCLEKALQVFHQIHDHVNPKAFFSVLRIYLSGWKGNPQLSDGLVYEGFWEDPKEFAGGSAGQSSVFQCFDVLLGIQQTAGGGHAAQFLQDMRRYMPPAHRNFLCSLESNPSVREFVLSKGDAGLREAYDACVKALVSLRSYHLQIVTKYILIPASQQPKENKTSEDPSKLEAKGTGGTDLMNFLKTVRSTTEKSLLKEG

**Q.** How did the IC50 turn out when CCC(NC(=O)c1ccc(OC)nc1)C1CCC(c2ccnc3ncccc23)CC1 (mixture of isomers) [Example 52, (+/−)-Cis and trans N-(1-(4-(1,8-naphthyridin-4-yl)cyclohexyl)propyl)-6-methoxynicotinamide] was run?
**A.** 30 nM

**Q.** CCC(NC(=O)c1ccc(OC)nc1)[C@H]1CC[C@@H](c2ccnc3c(OC)cc(C(F)(F)F)cc32)CC1 (mixture of isomers) [Example 44, (±)-6-methoxy-N-(1-((cis)-4-(8-methoxy-6-(trifluoromethyl)quinolin-4-yl)cyclohexyl)propyl)nicotinamide] was tested. Which IC50 did it give?
**A.** 10 nM

**Q.** How did the IC50 turn out when COc1ccc(C(=O)NC(CC#N)[C@H]2CC[C@@H](c3ccnc4ccc(F)cc43)CC2)cn1 (mixture of isomers) [Example 54, Cis or trans-N-(2-cyano-1-((1s,4s)-4-(6-fluoroquinolin-4-yl)cyclohexyl)ethyl)-6-methoxynicotinamide] was run?
**A.** 10 nM

**Q.** How did the IC50 turn out when CCC(NC(=O)c1ccc(OC)nc1)C1CCC(c2ccnc3ccc(C(F)(F)F)cc23)CC1 (single isomer, unassigned) [Example 11a, 6-Methoxy-N-(1-((1s,4s)-4-(6-(trifluoromethyl)quinolin-4-yl)cyclohexyl)propyl)nicotinamide] was run?
**A.** 100 nM

**Q.** COCC(NC(=O)c1ccc(OC)nc1)C1CCC(c2ccnc3ccc(C(F)(F)F)cc23)CC1 (single isomer, unassigned) [Example 12a, 6-Methoxy-N-(2-methoxy-1-((1s,4s)-4-(6-(trifluoromethyl)quinolin-4-yl)cyclohexyl)ethyl)nicotinamide] was tested. Which IC50 did it give?
**A.** 80 nM

**Q.** How did the IC50 turn out when CCOC[C@@H](NC(=O)c1ccc(OC)nc1)[C@H]1CC[C@@H](c2ccnc3ccc(C(F)(F)F)cc32)CC1 (single isomer, unassigned) [Example 13a, N-(2-Ethoxy-1-(4-(6-(trifluoromethyl)quinolin-4-yl)cyclohexyl)ethyl)-6-methoxynicotinamide] was run?
**A.** 80 nM

**Q.** How did the IC50 turn out when CCOC[C@@H](NC(=O)c1ccc(OC)nc1)[C@H]1CC[C@@H](c2ccnc3ccc(C(F)(F)F)cc32)CC1 (single isomer, unassigned) [Example 13d, N-(2-Ethoxy-1-(4-(6-(trifluoromethyl)quinolin-4-yl)cyclohexyl)ethyl)-6-methoxynicotinamide] was run?
**A.** 940 nM

**Q.** How did the IC50 turn out when COCCOCC(NC(=O)c1ccc(OC)nc1)C1CCC(c2ccnc3ccc(F)cc23)CC1 (single isomer, unassigned) [Example 15b, N-(1-((1s,4s)-4-(6-Fluoroquinolin-4-yl)cyclohexyl)-2-(2-methoxyethoxy)ethyl)-6-methoxynicotinamide] was run?
**A.** 10 nM

**Q.** COCCOCC(NC(=O)c1cnc(OC)nc1)C1CCC(c2ccnc3ccc(F)cc23)CC1 (single isomer, unassigned) [Example 16a, N-(1-((1s,4s)-4-(6-Fluoroquinolin-4-yl)cyclohexyl)-2-(2-methoxyethoxy)ethyl)-2-methoxypyrimidine-5-carboxamide] was tested. Which IC50 did it give?
**A.** 40 nM

**Q.** How did the IC50 turn out when COc1ccc(C(=O)N[C@H](CC2(C)COC2)[C@H]2CC[C@@H](c3ccnc4ccc(C(F)(F)F)cc43)CC2)cn1 (single isomer, unassigned) [Example 17a, 6-Methoxy-N-(2-(3-methyloxetan-3-yl)-1-(4-(6-(trifluoromethyl)quinolin-4-yl)cyclohexyl)ethyl)nicotinamide] was run?
**A.** 30 nM

**Q.** Which IC50 does the source give for COc1ccc(C(=O)N[C@H](CC2(C)COC2)[C@H]2CC[C@@H](c3ccnc4ccc(C(F)(F)F)cc43)CC2)cn1 (single isomer, unassigned) [Example 17b, 6-Methoxy-N-(2-(3-methyloxetan-3-yl)-1-(4-(6-(trifluoromethyl)quinolin-4-yl)cyclohexyl)ethyl)nicotinamide] here?
**A.** 350 nM

**Q.** CCC(NC(=O)c1ccc(OC)nc1)C1CCC(c2ccnc3c(C(F)(F)F)cccc23)CC1 (single isomer, unassigned) [Example 18a, 6-Methoxy-N-(1-((1s,4s)-4-(8-(trifluoromethyl)quinolin-4-yl)cyclohexyl)propyl)nicotinamide] was tested. Which IC50 did it give?
**A.** 830 nM

**Q.** CCC(NC(=O)c1ccc(OC)nc1)C1CCC(c2ccnc3cc(C(F)(F)F)ccc23)CC1 (single isomer, unassigned) [Example 19b, 6-Methoxy-N-(1-((1s,4s)-4-(7-(trifluoromethyl)quinolin-4-yl)cyclohexyl)propyl)nicotinamide] was tested. Which IC50 did it give?
**A.** 10 nM

same assay, conditions: HeLa cells; potency class; read-out: Patent Potency Hela IC50 A < 10 nM, B > 10 nM, C > 100 nM

**Q.** For CCC(NC(=O)c1ccc(OC)nc1)C1CCC(c2ccnc(F)c2C)CC1 (mixture of isomers) [Example 55, (+/−)-Cis and trans-N-(1-(4-(2-fluoro-3-methylpyridin-4-yl)cyclohexyl)propyl)-6-methoxynicotinamide], which IC50 is on record?
**A.** < 10 nM

**Q.** For [2H]C([2H])([2H])Oc1ccc(C(=O)NC(CC)[C@H]2CC[C@@H](c3ccnc(OC)c3C(F)F)CC2)cn1 (mixture of isomers) [Example 65, (±)-N-(1-((1s,4s)-4-(3-(difluoromethyl)-2-methoxypyridin-4-yl)cyclohexyl)propyl)-6-(methoxy-d3)nicotinamide], which IC50 is on record?
**A.** < 10 nM

**Q.** Which IC50 does the source give for CCC(NC(=O)c1ccc(OC)nc1)[C@H]1CC[C@H](c2ccnc(F)c2C)CC1 (mixture of isomers) [Example 67, (±)-N-(1-((1r,4r)-4-(2-fluoro-3-methylpyridin-4-yl)cyclohexyl)propyl)-6-methoxynicotinamide] here?
**A.** > 100 nM

**Q.** Which IC50 does the source give for CC[C@@H](NC(=O)c1ccc(OC)nc1)[C@H]1CC[C@@H](c2ccnc3c(F)cccc32)CC1 (relative stereo) [Example 59b, N-(1-(4-(8-fluoroquinolin-4-yl)cyclohexyl)propyl)-6-methoxynicotinamide] here?
**A.** < 10 nM

**Q.** How did the IC50 turn out when CCC(NC(=O)c1ccc(OC)nc1)C1CCC(c2ccnc3ccc(C(F)(F)F)cc23)CC1 (single isomer, unassigned) [Example 11b, 6-Methoxy-N-(1-((1s,4s)-4-(6-(trifluoromethyl)quinolin-4-yl)cyclohexyl)propyl)nicotinamide] was run?
**A.** < 10 nM

**Q.** With COCC(NC(=O)c1ccc(OC)nc1)C1CCC(c2ccnc3ccc(C(F)(F)F)cc23)CC1 (single isomer, unassigned) [Example 12b, 6-Methoxy-N-(2-methoxy-1-((1s,4s)-4-(6-(trifluoromethyl)quinolin-4-yl)cyclohexyl)ethyl)nicotinamide] as the molecule, how does the IC50 read?
**A.** < 10 nM

**Q.** With CCOC[C@@H](NC(=O)c1ccc(OC)nc1)[C@H]1CC[C@@H](c2ccnc3ccc(C(F)(F)F)cc32)CC1 (single isomer, unassigned) [Example 13b, N-(2-Ethoxy-1-(4-(6-(trifluoromethyl)quinolin-4-yl)cyclohexyl)ethyl)-6-methoxynicotinamide] as the molecule, how does the IC50 read?
**A.** < 10 nM

**Q.** For COCCOCC(NC(=O)c1ccc(OC)nc1)C1CCC(c2ccnc3ccc(F)cc23)CC1 (single isomer, unassigned) [Example 15a, N-(1-((1s,4s)-4-(6-Fluoroquinolin-4-yl)cyclohexyl)-2-(2-methoxyethoxy)ethyl)-6-methoxynicotinamide], which IC50 is on record?
**A.** < 10 nM

**Q.** COCCOCC(NC(=O)c1cnc(OC)nc1)C1CCC(c2ccnc3ccc(F)cc23)CC1 (single isomer, unassigned) [Example 16b, N-(1-((1s,4s)-4-(6-Fluoroquinolin-4-yl)cyclohexyl)-2-(2-methoxyethoxy)ethyl)-2-methoxypyrimidine-5-carboxamide] was tested. Which IC50 did it give?
**A.** < 10 nM

**Q.** Which IC50 does the source give for COc1ccc(C(=O)N[C@H](CC2(C)COC2)[C@H]2CC[C@@H](c3ccnc4ccc(C(F)(F)F)cc43)CC2)cn1 (single isomer, unassigned) [Example 17c, 6-Methoxy-N-(2-(3-methyloxetan-3-yl)-1-(4-(6-(trifluoromethyl)quinolin-4-yl)cyclohexyl)ethyl)nicotinamide] here?
**A.** > 100 nM

**Q.** COc1ccc(C(=O)N[C@H](CC2(C)COC2)[C@H]2CC[C@@H](c3ccnc4ccc(C(F)(F)F)cc43)CC2)cn1 (single isomer, unassigned) [Example 17d, 6-Methoxy-N-(2-(3-methyloxetan-3-yl)-1-(4-(6-(trifluoromethyl)quinolin-4-yl)cyclohexyl)ethyl)nicotinamide] was tested. Which IC50 did it give?
**A.** > 100 nM

**Q.** With CCC(NC(=O)c1ccc(OC)nc1)C1CCC(c2ccnc3c(C(F)(F)F)cccc23)CC1 (single isomer, unassigned) [Example 18b, 6-Methoxy-N-(1-((1s,4s)-4-(8-(trifluoromethyl)quinolin-4-yl)cyclohexyl)propyl)nicotinamide] as the molecule, how does the IC50 read?
**A.** < 10 nM

**Q.** CCC(NC(=O)c1ccc(OC)nc1)C1CCC(c2ccnc3cc(C(F)(F)F)ccc23)CC1 (single isomer, unassigned) [Example 19a, 6-Methoxy-N-(1-((1s,4s)-4-(7-(trifluoromethyl)quinolin-4-yl)cyclohexyl)propyl)nicotinamide] was tested. Which IC50 did it give?
**A.** > 100 nM
